Experimental data as given in patent EP4722207A1, “OXOISOINDOLINYL-SUBSTITUTED TETRAHYDROPYRIMIDINEDIONE DERIVATIVE AND USE THEREOF” (Gluetacs Therapeutics (Shanghai) Co., Ltd., priority 2023, dated 2024).

Legend:
Type in all cases: cell-based
Details in all cases: compounds at 50 nM and 500 nM, 24 hours
WEE1 = biological target: T1, WEE1 (Homo sapiens, UniProt P30291+Q96SW2); experiment: Western-blot assay, substrate protein degradation in hPBMCs: WEE1
T1 construct: effects of the compounds of the present disclosure on the expression of target proteins in cells; endogenous in cells; host or cells: human PBMCs (hPBMCs)

IKZF1 = biological target: T2, IKZF1 (Homo sapiens, UniProt Q13422+Q96SW2); experiment: Western-blot assay, substrate protein degradation in hPBMCs: IKZF1
T2 construct: effects of the compounds of the present disclosure on the expression of target proteins in cells; endogenous in cells; host or cells: human PBMCs (hPBMCs)

IKZF2 = biological target: T3, IKZF2 (Homo sapiens, UniProt Q96SW2+Q9UKS7); experiment: Western-blot assay, substrate protein degradation in hPBMCs: IKZF2
T3 construct: effects of the compounds of the present disclosure on the expression of target proteins in cells; endogenous in cells; host or cells: human PBMCs (hPBMCs)

IKZF3 = biological target: T4, IKZF3 (Homo sapiens, UniProt Q96SW2+Q9UKT9); experiment: Western-blot assay, substrate protein degradation in hPBMCs: IKZF3
T4 construct: effects of the compounds of the present disclosure on the expression of target proteins in cells; endogenous in cells; host or cells: human PBMCs (hPBMCs)

CK1α = biological target: T5, CK1α (Homo sapiens, UniProt P48729+Q96SW2); experiment: Western-blot assay, substrate protein degradation in hPBMCs: CK1α
T5 construct: effects of the compounds of the present disclosure on the expression of target proteins in cells; endogenous in cells; host or cells: human PBMCs (hPBMCs)

GSPT1 = biological target: T6, GSPT1 (Homo sapiens, UniProt P15170+Q96SW2); experiment: Western-blot assay, substrate protein degradation in hPBMCs: GSPT1
T6 construct: effects of the compounds of the present disclosure on the expression of target proteins in cells; endogenous in cells; host or cells: human PBMCs (hPBMCs)
T6 sequence (P15170 whole entry): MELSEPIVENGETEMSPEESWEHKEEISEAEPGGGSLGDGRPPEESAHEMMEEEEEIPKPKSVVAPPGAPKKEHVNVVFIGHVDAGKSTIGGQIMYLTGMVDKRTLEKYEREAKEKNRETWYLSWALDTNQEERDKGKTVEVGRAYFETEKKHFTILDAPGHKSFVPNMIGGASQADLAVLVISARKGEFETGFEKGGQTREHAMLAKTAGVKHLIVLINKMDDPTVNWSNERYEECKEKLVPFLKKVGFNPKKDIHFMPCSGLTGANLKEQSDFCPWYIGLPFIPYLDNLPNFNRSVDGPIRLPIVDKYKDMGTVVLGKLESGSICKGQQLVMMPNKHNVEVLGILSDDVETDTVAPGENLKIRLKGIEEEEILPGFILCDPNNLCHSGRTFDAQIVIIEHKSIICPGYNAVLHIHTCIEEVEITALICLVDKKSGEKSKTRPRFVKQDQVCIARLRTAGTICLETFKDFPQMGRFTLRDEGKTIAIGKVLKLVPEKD
T6 sequence (Q96SW2 whole entry): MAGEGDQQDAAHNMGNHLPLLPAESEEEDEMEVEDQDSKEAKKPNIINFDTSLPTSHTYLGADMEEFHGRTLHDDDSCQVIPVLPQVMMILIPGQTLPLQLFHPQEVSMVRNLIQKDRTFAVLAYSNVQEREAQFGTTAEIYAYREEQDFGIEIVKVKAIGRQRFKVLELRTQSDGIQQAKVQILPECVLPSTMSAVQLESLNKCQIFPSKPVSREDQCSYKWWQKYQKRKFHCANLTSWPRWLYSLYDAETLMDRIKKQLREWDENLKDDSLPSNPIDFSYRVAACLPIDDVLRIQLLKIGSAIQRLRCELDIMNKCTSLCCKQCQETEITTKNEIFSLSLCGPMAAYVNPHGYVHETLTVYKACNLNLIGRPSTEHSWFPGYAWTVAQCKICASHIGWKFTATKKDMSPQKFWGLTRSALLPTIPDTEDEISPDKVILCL
T6 sequence (Q16531 whole entry partner): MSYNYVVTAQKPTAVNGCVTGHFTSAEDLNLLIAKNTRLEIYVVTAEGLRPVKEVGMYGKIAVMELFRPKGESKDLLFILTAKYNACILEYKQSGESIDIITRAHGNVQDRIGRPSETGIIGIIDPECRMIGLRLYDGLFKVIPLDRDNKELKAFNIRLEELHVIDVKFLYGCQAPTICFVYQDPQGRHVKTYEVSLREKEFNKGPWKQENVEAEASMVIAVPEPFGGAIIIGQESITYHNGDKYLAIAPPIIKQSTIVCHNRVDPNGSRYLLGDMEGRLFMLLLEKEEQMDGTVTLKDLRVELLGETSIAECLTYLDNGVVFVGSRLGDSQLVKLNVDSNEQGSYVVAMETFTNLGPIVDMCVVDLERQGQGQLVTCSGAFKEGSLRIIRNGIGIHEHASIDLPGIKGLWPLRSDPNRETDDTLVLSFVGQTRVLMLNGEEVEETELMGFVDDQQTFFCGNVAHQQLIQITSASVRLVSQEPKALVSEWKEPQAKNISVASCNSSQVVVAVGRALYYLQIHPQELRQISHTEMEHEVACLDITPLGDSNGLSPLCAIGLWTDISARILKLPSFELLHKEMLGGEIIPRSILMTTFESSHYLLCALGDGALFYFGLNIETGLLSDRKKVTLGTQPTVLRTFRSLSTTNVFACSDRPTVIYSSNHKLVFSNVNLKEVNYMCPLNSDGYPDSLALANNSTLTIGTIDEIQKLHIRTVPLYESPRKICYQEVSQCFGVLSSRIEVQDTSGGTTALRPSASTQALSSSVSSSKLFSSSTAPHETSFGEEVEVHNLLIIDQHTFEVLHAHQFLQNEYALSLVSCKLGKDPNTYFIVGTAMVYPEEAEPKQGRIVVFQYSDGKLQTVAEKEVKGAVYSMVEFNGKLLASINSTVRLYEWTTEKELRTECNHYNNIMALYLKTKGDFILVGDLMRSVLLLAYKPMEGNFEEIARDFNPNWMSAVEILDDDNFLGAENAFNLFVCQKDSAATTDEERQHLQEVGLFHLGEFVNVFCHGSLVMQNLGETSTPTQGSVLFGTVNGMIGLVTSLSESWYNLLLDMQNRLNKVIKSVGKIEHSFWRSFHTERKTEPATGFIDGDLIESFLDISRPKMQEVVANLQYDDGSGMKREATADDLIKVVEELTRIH

T4 sequence (Q9UKT9 whole entry): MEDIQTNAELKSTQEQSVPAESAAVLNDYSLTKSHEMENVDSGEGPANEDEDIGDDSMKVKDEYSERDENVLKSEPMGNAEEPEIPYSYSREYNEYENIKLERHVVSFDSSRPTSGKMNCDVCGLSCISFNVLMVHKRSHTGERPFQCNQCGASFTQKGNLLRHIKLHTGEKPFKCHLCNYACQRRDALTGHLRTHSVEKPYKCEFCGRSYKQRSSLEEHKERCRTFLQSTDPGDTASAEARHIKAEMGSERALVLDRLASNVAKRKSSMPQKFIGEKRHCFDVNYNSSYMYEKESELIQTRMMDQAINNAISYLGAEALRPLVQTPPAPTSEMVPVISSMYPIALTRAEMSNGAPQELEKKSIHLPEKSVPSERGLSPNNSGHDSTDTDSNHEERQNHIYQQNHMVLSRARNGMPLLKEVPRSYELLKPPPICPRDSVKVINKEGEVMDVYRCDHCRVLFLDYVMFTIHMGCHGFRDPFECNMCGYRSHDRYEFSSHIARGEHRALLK
T4 sequence (Q96SW2 whole entry): as the sequence (Q96SW2 whole entry) above
T4 sequence (Q16531 whole entry partner): as the sequence (Q16531 whole entry partner) above
T5 sequence (P48729 whole entry): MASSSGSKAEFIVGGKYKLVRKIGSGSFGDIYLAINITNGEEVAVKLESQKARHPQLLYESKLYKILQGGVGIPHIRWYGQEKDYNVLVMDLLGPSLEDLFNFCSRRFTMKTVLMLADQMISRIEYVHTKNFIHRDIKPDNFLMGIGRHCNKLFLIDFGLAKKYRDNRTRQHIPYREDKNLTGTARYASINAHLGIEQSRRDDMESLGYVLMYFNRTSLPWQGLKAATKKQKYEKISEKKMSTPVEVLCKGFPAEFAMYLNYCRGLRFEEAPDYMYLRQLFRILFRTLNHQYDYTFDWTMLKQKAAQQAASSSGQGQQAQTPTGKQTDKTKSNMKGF
T5 sequence (Q96SW2 whole entry): as the sequence (Q96SW2 whole entry) above
T5 sequence (Q16531 whole entry partner): as the sequence (Q16531 whole entry partner) above
T1 sequence (P30291 whole entry): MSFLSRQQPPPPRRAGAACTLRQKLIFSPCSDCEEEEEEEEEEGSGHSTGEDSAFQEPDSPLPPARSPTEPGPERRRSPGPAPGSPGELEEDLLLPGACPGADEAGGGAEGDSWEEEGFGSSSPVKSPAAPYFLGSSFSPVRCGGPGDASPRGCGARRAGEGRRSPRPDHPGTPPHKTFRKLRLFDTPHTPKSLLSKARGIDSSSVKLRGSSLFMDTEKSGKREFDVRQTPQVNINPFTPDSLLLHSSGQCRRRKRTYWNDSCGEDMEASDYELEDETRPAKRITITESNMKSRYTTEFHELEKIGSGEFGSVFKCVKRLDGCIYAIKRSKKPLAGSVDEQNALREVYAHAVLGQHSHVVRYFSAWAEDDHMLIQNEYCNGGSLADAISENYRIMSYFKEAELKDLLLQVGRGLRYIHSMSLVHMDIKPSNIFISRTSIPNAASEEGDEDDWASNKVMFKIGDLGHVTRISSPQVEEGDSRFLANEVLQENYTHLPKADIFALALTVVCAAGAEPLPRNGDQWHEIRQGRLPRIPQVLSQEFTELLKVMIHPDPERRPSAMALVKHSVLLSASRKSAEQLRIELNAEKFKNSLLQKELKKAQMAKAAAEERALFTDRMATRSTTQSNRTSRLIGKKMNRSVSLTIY
T1 sequence (Q96SW2 whole entry): as the sequence (Q96SW2 whole entry) above
T1 sequence (Q16531 whole entry partner): as the sequence (Q16531 whole entry partner) above
T3 sequence (Q9UKS7 whole entry): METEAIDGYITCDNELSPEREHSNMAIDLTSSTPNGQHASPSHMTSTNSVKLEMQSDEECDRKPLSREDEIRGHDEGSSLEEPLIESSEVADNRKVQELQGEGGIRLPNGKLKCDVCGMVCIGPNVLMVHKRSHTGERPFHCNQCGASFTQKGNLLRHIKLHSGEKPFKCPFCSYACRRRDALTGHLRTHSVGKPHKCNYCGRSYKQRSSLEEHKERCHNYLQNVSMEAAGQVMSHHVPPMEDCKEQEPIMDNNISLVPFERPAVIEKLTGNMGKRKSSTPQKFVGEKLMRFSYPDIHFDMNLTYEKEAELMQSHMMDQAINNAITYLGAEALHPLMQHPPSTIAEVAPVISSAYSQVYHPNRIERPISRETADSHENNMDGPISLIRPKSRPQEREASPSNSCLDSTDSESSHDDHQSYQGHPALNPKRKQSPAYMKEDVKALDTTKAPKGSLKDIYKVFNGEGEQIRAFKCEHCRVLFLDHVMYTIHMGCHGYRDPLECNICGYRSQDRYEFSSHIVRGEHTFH
T3 sequence (Q96SW2 whole entry): as the sequence (Q96SW2 whole entry) above
T3 sequence (Q16531 whole entry partner): as the sequence (Q16531 whole entry partner) above

Row | Compound | WEE1 substrate protein remaining % (WEE1) | IKZF1 substrate protein remaining % (IKZF1) | IKZF2 substrate protein remaining % (IKZF2) | IKZF3 substrate protein remaining % (IKZF3) | CK1α substrate protein remaining % (CK1α) | GSPT1 substrate protein remaining % (GSPT1)
1 | O=C1CCN(N2Cc3cc(CN4CCN(C(c5ccccc5)c5cccnc5)CC4)ccc3C2=O)C(=O)N1 (stereo not drawn) [GT-06376, 1-(1-oxo-5-((4-(phenyl(pyridin-3-yl)methyl)piperazin-1-yl)methyl)isoindolin-2-yl)dihydropyrimidine-2,4(1H,3H)-dione] | A ("A" is defined as 0% ≤ substrate protein remaining % ≤ 80%) | B ("B" is defined as 80%< substrate protein remaining %≤ 100%) | A ("A" is defined as 0% ≤ substrate protein remaining % ≤ 80%) | B ("B" is defined as 80%< substrate protein remaining %≤ 100%) | B ("B" is defined as 80%< substrate protein remaining %≤ 100%) | A ("A" is defined as 0% ≤ substrate protein remaining % ≤ 80%)
2 | O=C1CCN(N2C(=O)c3ccc(CN4CCN(C(c5ccccc5)c5cccnc5)CC4)cc3C2=O)C(=O)N1 (stereo not drawn) [GT-06377, 2-(2,4-dioxotetrahydropyrimidin-1(2H)-yl)-5-((4-(phenyl(pyridin-3-yl)methyl)piperazin-1-yl)methyl)isoindoline-1,3-dione] | A ("A" is defined as 0% ≤ substrate protein remaining % ≤ 80%) | B ("B" is defined as 80%< substrate protein remaining %≤ 100%) | A ("A" is defined as 0% ≤ substrate protein remaining % ≤ 80%) | B ("B" is defined as 80%< substrate protein remaining %≤ 100%) | B ("B" is defined as 80%< substrate protein remaining %≤ 100%) | B ("B" is defined as 80%< substrate protein remaining %≤ 100%)
3 | O=C1CCN(N2C(=O)c3ccc(CN4CCN(C(c5ccccc5)c5ccncc5)CC4)cc3C2=O)C(=O)N1 (stereo not drawn) [GT-06378, 2-(2,4-dioxotetrahydropyrimidin-1(2H)-yl)-5-((4-(phenyl(pyridin-4-yl)methyl)piperazin-1-yl)methyl)isoindoline-1,3-dione] | A ("A" is defined as 0% ≤ substrate protein remaining % ≤ 80%) | B ("B" is defined as 80%< substrate protein remaining %≤ 100%) | A ("A" is defined as 0% ≤ substrate protein remaining % ≤ 80%) | A ("A" is defined as 0% ≤ substrate protein remaining % ≤ 80%) | B ("B" is defined as 80%< substrate protein remaining %≤ 100%) | B ("B" is defined as 80%< substrate protein remaining %≤ 100%)
4 | O=C1CCN(N2C(=O)c3ccc(CN4CCN(C(c5ccccn5)c5ccccn5)CC4)cc3C2=O)C(=O)N1 [GT-06379, 5-((4-(di(pyridin-2-yl)methyl)piperazin-1-yl)methyl)-2-(2,4-dioxotetrahydropyrimidin-1(2H)-yl)isoindoline-1,3-dione] | A ("A" is defined as 0% ≤ substrate protein remaining % ≤ 80%) | B ("B" is defined as 80%< substrate protein remaining %≤ 100%) | A ("A" is defined as 0% ≤ substrate protein remaining % ≤ 80%) | A ("A" is defined as 0% ≤ substrate protein remaining % ≤ 80%) | B ("B" is defined as 80%< substrate protein remaining %≤ 100%) | A ("A" is defined as 0% ≤ substrate protein remaining % ≤ 80%)
5 | CC1(C)CN(Cc2ccc3c(c2)C(=O)N(N2CCC(=O)NC2=O)C3=O)CCN1C(c1ccccc1)c1ccccc1 [GT-06385, 5-((4-benzhydryl-3,3-dimethylpiperazin-1-yl)methyl)-2-(2,4-dioxotetrahydropyrimidin-1(2H)-yl)isoindoline-1,3-dione] | A ("A" is defined as 0% ≤ substrate protein remaining % ≤ 80%) | B ("B" is defined as 80%< substrate protein remaining %≤ 100%) | B ("B" is defined as 80%< substrate protein remaining %≤ 100%) | A ("A" is defined as 0% ≤ substrate protein remaining % ≤ 80%) | B ("B" is defined as 80%< substrate protein remaining %≤ 100%) | A ("A" is defined as 0% ≤ substrate protein remaining % ≤ 80%)
6 | O=C1CCN(N2Cc3cc(CN4CCC(c5nccc(Cl)c5Cl)CC4)ccc3C2=O)C(=O)N1 [GT-06388, 1-(5-((4-(3,4-dichloropyridin-2-yl)piperidin-1-yl)methyl)-1-oxoisoindolin-2-yl)dihydropyrimidine-2,4(1H,3H)-dione] | B ("B" is defined as 80%< substrate protein remaining %≤ 100%) | B ("B" is defined as 80%< substrate protein remaining %≤ 100%) | B ("B" is defined as 80%< substrate protein remaining %≤ 100%) | B ("B" is defined as 80%< substrate protein remaining %≤ 100%) | B ("B" is defined as 80%< substrate protein remaining %≤ 100%) | A ("A" is defined as 0% ≤ substrate protein remaining % ≤ 80%)
7 | O=C1CCN(N2Cc3cc(CN4CCC(c5ccnc(Cl)c5Cl)CC4)ccc3C2=O)C(=O)N1 [GT-06390, 1-(5-((4-(2,3-dichloropyridin-4-yl)piperidin-1-yl)methyl)-1-oxoisoindolin-2-yl)dihydropyrimidine-2,4(1H,3H)-dione] | B ("B" is defined as 80%< substrate protein remaining %≤ 100%) | B ("B" is defined as 80%< substrate protein remaining %≤ 100%) | B ("B" is defined as 80%< substrate protein remaining %≤ 100%) | B ("B" is defined as 80%< substrate protein remaining %≤ 100%) | B ("B" is defined as 80%< substrate protein remaining %≤ 100%) | A ("A" is defined as 0% ≤ substrate protein remaining % ≤ 80%)
8 | O=C1CCN(N2Cc3cc(CN4CC=C(c5cncc(Cl)c5)CC4)ccc3C2=O)C(=O)N1 [GT-06394, 1-(5-((5-chloro-3',6'-dihydro-[3,4'-bipyridin]-1'(2'H)-yl)methyl)-1-oxoisoindolin-2-yl)dihydropyrimidine-2,4(1H,3H)-dione] | B ("B" is defined as 80%< substrate protein remaining %≤ 100%) | B ("B" is defined as 80%< substrate protein remaining %≤ 100%) | A ("A" is defined as 0% ≤ substrate protein remaining % ≤ 80%) | B ("B" is defined as 80%< substrate protein remaining %≤ 100%) | A ("A" is defined as 0% ≤ substrate protein remaining % ≤ 80%) | A ("A" is defined as 0% ≤ substrate protein remaining % ≤ 80%)
9 | O=C1CCN(N2Cc3cc(CN4CC=C(c5ncccc5F)CC4)ccc3C2=O)C(=O)N1 [GT-06395, 1-(5-((3-fluoro-3',6'-dihydro-[2,4'-bipyridin]-1'(2'H)-yl)methyl)-1-oxoisoindolin-2-yl)dihydropyrimidine-2,4(1H,3H)-dione] | B ("B" is defined as 80%< substrate protein remaining %≤ 100%) | B ("B" is defined as 80%< substrate protein remaining %≤ 100%) | B ("B" is defined as 80%< substrate protein remaining %≤ 100%) | B ("B" is defined as 80%< substrate protein remaining %≤ 100%) | A ("A" is defined as 0% ≤ substrate protein remaining % ≤ 80%) | A ("A" is defined as 0% ≤ substrate protein remaining % ≤ 80%)
10 | O=C1CCN(N2Cc3cc(CN4CCC(c5ccnc(F)c5F)CC4)ccc3C2=O)C(=O)N1 [GT-06396, 1-(5-((4-(2,3-difluoropyridin-4-yl)piperidin-1-yl)methyl)-1-oxoisoindolin-2-yl)dihydropyrimidine-2,4(1H,3H)-dione] | B ("B" is defined as 80%< substrate protein remaining %≤ 100%) | B ("B" is defined as 80%< substrate protein remaining %≤ 100%) | B ("B" is defined as 80%< substrate protein remaining %≤ 100%) | B ("B" is defined as 80%< substrate protein remaining %≤ 100%) | A ("A" is defined as 0% ≤ substrate protein remaining % ≤ 80%) | B ("B" is defined as 80%< substrate protein remaining %≤ 100%)
11 | O=C1CCN(N2Cc3cc(CN4CC=C(c5ccnc(F)c5F)CC4)ccc3C2=O)C(=O)N1 [GT-06397, 1-(5-((2',3'-difluoro-3,6-dihydro-[4,4'-bipyridin]-1(2H)-yl)methyl)-1-oxoisoindolin-2-yl)dihydropyrimidine-2,4(1H,3H)-dione] | A ("A" is defined as 0% ≤ substrate protein remaining % ≤ 80%) | B ("B" is defined as 80%< substrate protein remaining %≤ 100%) | A ("A" is defined as 0% ≤ substrate protein remaining % ≤ 80%) | B ("B" is defined as 80%< substrate protein remaining %≤ 100%) | B ("B" is defined as 80%< substrate protein remaining %≤ 100%) | A ("A" is defined as 0% ≤ substrate protein remaining % ≤ 80%)
